According to patent US20120027720A1, “PEPTIDE CONJUGATES” (priority 2008, published 2012):
*1 amine or outer side, *2 acyl side, *3 side chain or, on linkers, in order; H or OH if unused. Where no end group is shown, it is not given here. [ ]: non-standard residue; d: D form. Pen(Acm) = L-S-acetamidomethyl-penicillamine, CC(=O)NCSC(C)(C)[C@H](N[*:1])C(=O)[*:2]; 2Thi = N[C@@H](Cc1cccs1)C(=O)O; AllylGly = C=CC[C@H](N)C(=O)O; Pra = C#CC[C@H](N)C(=O)O

Experiments:
Type in all cases: cell-based
[1] = tested on: CaCo2 monolayers; experiment: Epithelial flux of Lucifer Yellow through cell monolayer; set-up: key to Enhanced LY permeability: + indicates an enhancement of the permeability of the tight junctions were observed; − indicates no enhancement of permeability was observed; settings: Lucifer Yellow flux, Caco-2 monolayer
Outline: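 Caco-2 cells (passage 40-60) grown 21-28 days on Transwell filters, equilibrated 30 min at 37 °C in HBSS-HEPES pH 7.4; Lucifer Yellow with test compound applied apically, n=3 filters. Basolateral samples at 60, 120, 180 min read by fluorescence at 485/535 nm against standard curve; TEER also measured.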

[2] = tested on: CaCo2 monolayers; experiment: Trans Epithelial Electric Resistance (TEER) across cell monolayer; set-up: key to Reduced TEER: + indicates an enhancement of the permeability of the tight junctions were observed; − indicates no enhancement of permeability was observed; settings: Caco-2 monolayer
Outline: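 Caco-2 cells, passage 40-60, grown 21-28 days on Transwell filters, equilibrated 30 min at 37° C in MHBSS pH 7.4. Test compound with Lucifer Yellow applied apically (n=3), incubated at 37° C with 50 RPM shaking; TEER measured at baseline and at 30, 60, 120 and 180 min.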

[3] = tested on: IEC6 cells; experiment: Real-Time Cell Electronic Sensing (RT-CES, ACEA) assay of cell morphology change; set-up: key: + indicates an enhancement of the permeability of the tight junctions were observed; − indicates no enhancement of permeability was observed; settings: peptide at 5 mg/mL
Text: Agonists of tight junctions can be identified by their ability to induce changes in morphology of cells in a monolayer of cells that comprise tight junctions. Such changes in the morphology of IEC6 cells may be measured using a Real-Time Cell Electronic Sensing protocol as described below.
Tight junction agonists can be identified using the following method an used in peptide conjugates of the invention:
Materials: cells: IEC6 passage 30-50, medium: DMEM 10% no calcium no magnesium, foetal bovine serum 0.1 unit per ml bovine insulin, buffers: phosphate buffered saline (PBS) no calcium no magnesium, trypsin: 0.25% porcine trypsin in HBSS no calcium no magnesium, flasks: 100×20 mm Tissue culture dish Falcon, plates: 16× E-Plate, machine: RT-CES™ 16× system (ACEA Biosciences, Inc., San Diego, Calif.)
Wash a 75 cm^2 flask of confluent IEC6 cells twice with 25 ml of PBS.
Add 2.5 ml of trypsin to the flask and place back in the incubator at 37° C.
Wash cells from the surface of the flask with 10 ml of serum containing media to quench the trypsin.
Pellet the cells by centrifugation at 1500 rpm for 5 minutes aspirate the media.
Resuspend the cell pellet in 10 ml of serum free media and centrifuge at 1500 rpm for 5 minutes aspirate the media and repeat for a total of 5 washes.
Take 100 μl of cells and mix with 100 μl of trypan blue.
Count the cells four times and use the average cell concentration.
Dilute the cells to 1×10^6 per ml in serum free media.
Add 100 μl of serum free media to each well of the ACEA plates to be used.
Insert the ACEA plate and press scan.
Run step 1 of the program to measure background.
Add 50 μl of cells to each well of the ACEA plate tap each slide of the plate 10 times and place the cells on the bench for 15 minutes to allow the cells to settle.
Insert the ACEA plate and run the scan step to check connections and run step 2-1 and 2-2 overnight.
Step 2-1 sample every 2 minutes 30 times.
Step 2-2 sample every 15 minutes 100 times.
The cell indices should be between 6-10 after the overnight run and should have reached a plateau.
Remove 100 μl of media carefully from each well.
Make up the compounds to be tested so that 50 μl contains 2× the desired final concentration.
Add 50 μl of compounds to the designated wells.
Scan the plate to check connections.
Step 3-1 sample every 2 minutes 30 times.
Step 3-2 sample every 15 minutes 100 times.

Row | Substance | Enhanced LY permeability [1] | Reduced TEER [2] | ACEA 5 mg/mL [3]
1 | 23 (LRGICF; not fully specified; printed as Leu-Arg-Gly-Ile-Cys-Phe) [compound 23] | + | + | −
2 | 5 (FCIARL; not fully specified; printed as Phe-Cys-Ile-Ala-Arg-Leu) [compound 5] | − | − | −
3 | 29 ([dF][dC][dI]G[dR][dL]; not fully specified; printed as D-Phe-D-Cys-D-Ile-Gly-D-Arg-D-Leu) [compound 29] | + | + | −
4 | 25 (L[dR]GICF; not fully specified; printed as Leu-D-Arg-Gly-Ile-Cys-Phe) [compound 25] | − | − | +
5 | 33 ([dF]C[dI]G[dR][dL]; not fully specified; printed as D-Phe-Cys-D-Ile-Gly-D-Arg-D-Leu) [compound 33] | − | − | +
6 | 14 (FC[dI]GRL; also: peptide conjugate) [compound 14] | + | + | −
7 | 22 (L[dR]G[dI][dC][dF]; not fully specified; printed as Leu-D-Arg-Gly-D-Ile-D-Cys-D-Phe) [compound 22] | + | + | −
8 | 16 (FCIGR[dL]; also: peptide conjugate) [compound 16] | − | − | −
9 | 13 (F[dC]IGRL; also: peptide conjugate) [compound 13] | + | + | +
10 | 32 ([dF][dC]IG[dR][dL]; not fully specified; printed as D-Phe-D-Cys-Ile-Gly-D-Arg-D-Leu) [compound 32] | + | + | −
11 | 8 (CIGRL; not fully specified; printed as Cys-Ile-Gly-Arg-Leu) [compound 8] | − | − | −
12 | 3 (FAIGRL; not fully specified; printed as Phe-Ala-Ile-Gly-Arg-Leu) [compound 3] | − | − | −
13 | 10 (FCIGR; also: peptide conjugate) [compound 10] | + | + | +
14 | 24 ([dL]RGICF; not fully specified; printed as D-Leu-Arg-Gly-Ile-Cys-Phe) [compound 24] | − | − | +
15 | 17 ([dL][dR]G[dI][dC][dF]; also: peptide conjugate) [compound 17] | + | + | −
16 | 11 (FCIG; also: peptide conjugate) [compound 11] |  | − | +
17 | 7 (FCIGRA; not fully specified; printed as Phe-Cys-Ile-Gly-Arg-Ala) [compound 7] | + | + | +

Row | Substance | Enhanced LY permeability [1] | Reduced TEER [2] | ACEA 5 mg/mL [3]
18 | 15 (FCIG[dR]L; also: peptide conjugate) [compound 15] | − | − | +
19 | 202 (I[AllylGly]IGRL-NH2; N-terminus assumed; SMILES C=CC[C@H](NC(=O)[C@@H](N)[C@@H](C)CC)C(=O)N[C@H](C(=O)NCC(=O)N[C@@H](CCCNC(=N)N)C(=O)N[C@@H](CC(C)C)C(N)=O)[C@@H](C)CC) [compound 202] | − | − | 
20 | 135 (FVIGRL; also: peptide conjugate) [compound 135] | + | + | 
21 | 115 (FSIGRL; also: peptide conjugate) [compound 115] | + | + | 
22 | 199 (H[AllylGly]IGRL-NH2; N-terminus assumed; SMILES C=CC[C@H](NC(=O)[C@@H](N)Cc1c[nH]cn1)C(=O)N[C@H](C(=O)NCC(=O)N[C@@H](CCCNC(=N)N)C(=O)N[C@@H](CC(C)C)C(N)=O)[C@@H](C)CC) [compound 199] | − | − | 
23 | 220 (F[AllylGly]ITRL-NH2; N-terminus assumed; SMILES C=CC[C@H](NC(=O)[C@@H](N)Cc1ccccc1)C(=O)N[C@H](C(=O)N[C@H](C(=O)N[C@@H](CCCNC(=N)N)C(=O)N[C@@H](CC(C)C)C(N)=O)[C@@H](C)O)[C@@H](C)CC) [compound 220] | − | − | 
24 | 129 (FQIGRL; also: peptide conjugate) [compound 129] | − | − | 
25 | 196 (W[AllylGly]IGRL-NH2; N-terminus assumed; SMILES C=CC[C@H](NC(=O)[C@@H](N)Cc1c[nH]c2ccccc12)C(=O)N[C@H](C(=O)NCC(=O)N[C@@H](CCCNC(=N)N)C(=O)N[C@@H](CC(C)C)C(N)=O)[C@@H](C)CC) [compound 196] | + | − | 
26 | 193 (Y[AllylGly]IGRL-NH2; N-terminus assumed; SMILES C=CC[C@H](NC(=O)[C@@H](N)Cc1ccc(O)cc1)C(=O)N[C@H](C(=O)NCC(=O)N[C@@H](CCCNC(=N)N)C(=O)N[C@@H](CC(C)C)C(N)=O)[C@@H](C)CC) [compound 193] | − | − | 
27 | 161 (F[Pen(Acm)]IGRL; also: peptide conjugate) [compound 161] | + | + | 
28 | 183 (F[AllylGly]IGRL-OH; N-terminus assumed; SMILES C=CC[C@H](NC(=O)[C@@H](N)Cc1ccccc1)C(=O)N[C@H](C(=O)NCC(=O)N[C@@H](CCCNC(=N)N)C(=O)N[C@@H](CC(C)C)C(=O)O)[C@@H](C)CC) [compound 183] | + | + | 
29 | 176 (F[Pra]IGR-NH2; N-terminus assumed; SMILES C#CC[C@H](NC(=O)[C@@H](N)Cc1ccccc1)C(=O)N[C@H](C(=O)NCC(=O)N[C@@H](CCCNC(=N)N)C(N)=O)[C@@H](C)CC) [compound 176] | − | − | 
30 | 126 (FFIGRL-NH2; also: peptide conjugate) [compound 126] | + | + | 
31 | 145 (H-F[dC]IGRL-OH; also: peptide conjugate) [compound 145] | + | + | 
32 | 140 (H-F[2Thi]IGRL-OH; SMILES CC[C@H](C)[C@H](NC(=O)[C@H](Cc1cccs1)NC(=O)[C@@H](N)Cc1ccccc1)C(=O)NCC(=O)N[C@@H](CCCNC(=N)N)C(=O)N[C@@H](CC(C)C)C(=O)O) [compound 140] | − | − | 
33 | 75 (Ac-ACIGRL; not fully specified; printed as Ac-Ala-Cys-Ile-Gly-Arg-Leu) [compound 75] | + | + | 
34 | 211 (F[AllylGly]AGRL-NH2; N-terminus assumed; SMILES C=CC[C@H](NC(=O)[C@@H](N)Cc1ccccc1)C(=O)N[C@@H](C)C(=O)NCC(=O)N[C@@H](CCCNC(=N)N)C(=O)N[C@@H](CC(C)C)C(N)=O) [compound 211] | + | + | 
